Data: patent US20250073245A1, “COMPOSITION AND METHOD OF TREATING HYPOGONADISM IN MEN” (priority 2023, published 2025)
“And” between values parts separate entries of the source, which are not always exact repeats. Equal values may be shown once. Read-outs that look alike come from different tables or passages of the source.

Key:
[1] = well-known value; cited from earlier work
[2] = test system: hypogonadism in men; experiment: Study of testosterone cypionate injections every 7 days (with anastrozole) in men, followed by blood work until stabilization; assay type: in vivo, human; settings: for TT at week 5 / TT once stable: average total testosterone; for increase in PSA from start of treatment to stabilization / PSA level at stabilization / Hemoglobin at 5 weeks / Hemoglobin at stabilization: average; for average decrease in A1c: TC and anastrozole dosing
Description: Patient hemoglobin and total testosterone (TT) levels were used in this Study to determine when a patient becomes “stable” on treatment. The terms “stable”, “stability”, “stabilized” and “stabilization” are defined in this Study as “the point at which a patient's symptoms have resolved, polycythemia has stopped, and TC dosage has remained consistent for at least 3 months.” Polycythemia associated with testosterone replacement therapy (TRT) has commonly been controlled through frequent patient blood donation. […] Several TT “normal” ranges can be found in the literature. For example, the Endocrine Society identifies the normal range for TT levels in males to be 264-916 ng/dL (1,17). However, LabCorp Diagnostics has used the previously accepted “normal” range of 348-1197 ng/dL until 2017 and Quest Diagnostics uses a reference range of 250-1110 ng/dL.
Patients' responses to TC injections administered every 7 days were tracked and the resulting effects of TC dosing on cholesterol, A1c, and PSA levels were documented once stable TT levels were reached.
Subjects: Two cohorts were studied. The two cohorts studied were males that had previously been on TRT and males who had never been on any form of TRT. Blood work was collected from all patients at their initial visit, after 1 month of treatment, after 3 months of treatment, and then at 6 months, 9 months, 12 months, etc. as patients continued treatment. Data was collected for each cohort including the length of time that it took to stabilize on treatment and the average dosage injected weekly once patients had reached stabilization.
However, in this Study TC injections were administered every 7 days, and blood samples were collected at 7 days post-TC injection and after at least 4 consecutive weeks of injections. […] Collecting blood samples at the 4-week mark provides more consistent, accurate, and useful information regarding the TT blood level than if the samples are collected earlier.
Blood samples were then sent to an outsourced laboratory, Lab Tech Diagnostics. Samples were drawn at the patient's initial visit, after their first 4 consecutive TC injections, after 3 months of treatment, and at 3-month intervals thereafter. Testosterone, estradiol, and hemoglobin levels were tracked with every blood sample. PSA and cholesterol levels were checked every 3 months. A1c levels were checked with initial blood work, and then once per year if A1c was within normal limits (WNL) or every 3 months if A1c was >5.6.
Given, the primary goal was to determine a stabilization point such that the patient achieved maximum benefit with minimal side effects (e.g., elimination of polycythemia) from the treatment, the challenge was to identify a TC dose at which the patient's hemoglobin stopped increasing. […] Patients were advised to start 81 mg aspirin daily if their hemoglobin started increasing after starting treatment. […] Dosage adjustments of TC were made in 20 mg (0.1 ml) increments. Assessment of new dosages were not made until after four consecutive injections at the new dose and at 7 days after their last injection. After analysis of data, there were notable similarities in the Total Testosterone, estradiol, and hemoglobin levels once patients reached stabilization on treatment. There were also differences seen between patients that had been on TRT in the past through other clinics and those that started treatment with our clinic. Patients who had previously been on TRT took longer to stabilize on therapy than those who had never been on TRT.

[3] = in humans; cited from earlier work
[4] = patients never on TRT, starting TT level 347.77 ng/dl
[5] = patients previously on TRT, starting TT level 479.83 ng/dl
[6] = patients never on TRT, initial 15.06 g/dl
[7] = patients previously on TRT, initial 15.78 g/dl

For `C[C@]12CC[C@H]3[C@@H](CCC4=CC(=O)CC[C@@]43C)[C@@H]1CC[C@@H]2OC(=O)CCC1CCCC1` [TC, testosterone cypionate], the half-life [1] is given as 170 to 190 h, the “symptoms at low 7-day testosterone level” value ([2]; 7-day testosterone level <600) is given as “almost all patients were still experiencing symptoms of testicular hypofunction” and the “patients who developed prostate cancer” value ([2]; 60 patients in the study) is given as “No patients”. For the same compound, the “common increase in cholesterol levels seen with excessive TC dosing” value ([2]; TC and anastrozole dosing as described in the study) was “Elimination”, the “side effects seen at higher TT levels” value ([2]; TT levels >1050) was “acne, aggression, erectile dysfunction, difficulty losing weight, extremely elevated estradiol levels, hair loss, and increased body hair” and the “TT level at which patients stabilized (range)” value ([2]; all patients in the study, drawn 7 days after injection) was 605 to 1051 ng/dL. The “TT at week 5” value [2, 4] was 705.43 ng/dL, the TT once stable [2, 4] was 794.53 ng/dL and the “TT at week 5” value [2, 5] was 805.9 ng/dL and 805.90 ng/dL. The TT once stable [2, 5] was 780.1 ng/dL and 780.10 ng/dL, the “increase in PSA from start of treatment to stabilization” value ([2]; patients never on TRT) was 26.89% and the “PSA level at stabilization” value ([2]; patients never on TRT, initial 0.859 ng/ml) was 1.090 ng/mL. For the same compound, the “Hemoglobin at 5 weeks” value [2, 6] was 15.33 g/dL, the Hemoglobin at stabilization [2, 6] was 15.79 g/dL and the “increase in PSA from start of treatment to stabilization” value ([2]; patients previously on TRT) was 14.36%. The “PSA level at stabilization” value ([2]; patients previously on TRT, initial 1.017 ng/ml) was 1.163 ng/mL, the “Hemoglobin at 5 weeks” value [2, 7] was 16.22 g/dL and the Hemoglobin at stabilization [2, 7] was 15.70 g/dL. For the same compound, the “side effects when not consistent with both TC and anastrozole dosing” value ([2]; inconsistent timing and dosage) was “frequently experienced acne, mood swings, and elevating hemoglobin”, the “polycythemia (need to donate blood)” value ([2]; once a patient reached stability on treatment) was “eliminated” and the “chief complaints/symptoms (Table 1) as reported by the patient” value ([2]; once stable on treatment) was “well-controlled”. The “average decrease in A1c” value ([2]; patients not previously on TRT) was 0.39%, the “average time longer to stabilize” value ([2]; patients previously on TRT in any form versus patients never on TRT) was 9.7 months and the “average decrease in A1c” value ([2]; patients previously on TRT) was 0.14%. For the same compound, the “TT level at stabilization (range)” value ([2]; patients never on TRT) was 641 to 1051 ng/dL and the “TT level at stabilization (range)” value ([2]; patients previously on TRT) was 605 to 1020 ng/dL.

In the case of `CC(C)(C#N)c1cc(Cn2cncn2)cc(C(C)(C)C#N)c1` [anastrozole], the “side effects when anastrozole was started at the beginning of treatment” value ([2]; in vivo) is given as “frequently experienced hot flashes or joint pains” and the half-life [3] is given as 30 to 60 h.

In the case of `CC(=O)Oc1ccccc1C(=O)O` [aspirin], the “effect of adding aspirin on hemoglobin levels” value ([2]; 81 mg daily, patients on TC whose hemoglobin started increasing) is reported as “helped to either decrease hemoglobin levels or slow the rate of increase of hemoglobin levels”.
